Tested on: 922993-354-T-J3-PDC complex spheroid viability
Assay: Anticancer human tumor 922993-354-T-J3-PDC patient-derived endometrial carcinoma cell line growth inhibition [POLQ]
Conditions: for IC50: curve of first compound; for viability, T/C: stronger effect = lower value
Summary of the method: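 Three-cell-type spheroids modelling solid tumor plus stroma served as the readout system; POL inhibitors were tested individually and in combination, concentration ranges set by clinical Cmax where known.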

[1] = second compound 0.0316 µM, first compound 0.00316 µM
[2] = second compound 0.0316 µM, first compound 0.01 µM
[3] = second compound 0.0316 µM, first compound 0.0316 µM
[4] = second compound 0.0316 µM, first compound 0.1 µM
[5] = second compound 0.0316 µM, first compound 0.316 µM
[6] = second compound 0.0316 µM, first compound 1 µM
[7] = second compound 0.1 µM, first compound 0.00316 µM
[8] = second compound 0.1 µM, first compound 0.01 µM
[9] = second compound 0.1 µM, first compound 0.0316 µM
[10] = second compound 0.1 µM, first compound 0.1 µM
[11] = second compound 0.1 µM, first compound 0.316 µM
[12] = second compound 0.1 µM, first compound 1 µM
[13] = second compound 0.316 µM, first compound 0.00316 µM
[14] = second compound 0.316 µM, first compound 0.01 µM
[15] = second compound 0.316 µM, first compound 0.0316 µM
[16] = second compound 0.316 µM, first compound 0.1 µM
[17] = second compound 0.316 µM, first compound 0.316 µM
[18] = second compound 0.316 µM, first compound 1 µM
[19] = second compound 1 µM, first compound 0.00316 µM
[20] = second compound 1 µM, first compound 0.01 µM
[21] = second compound 1 µM, first compound 0.0316 µM
[22] = second compound 1 µM, first compound 0.1 µM
[23] = second compound 1 µM, first compound 0.316 µM
[24] = second compound 1 µM, first compound 1 µM
[25] = second compound 3.16 µM, first compound 0.00316 µM
[26] = second compound 3.16 µM, first compound 0.01 µM
[27] = second compound 3.16 µM, first compound 0.0316 µM
[28] = second compound 3.16 µM, first compound 0.1 µM
[29] = second compound 3.16 µM, first compound 0.316 µM
[30] = second compound 3.16 µM, first compound 1 µM
[31] = second compound 10 µM, first compound 0.00316 µM
[32] = second compound 10 µM, first compound 0.01 µM
[33] = second compound 10 µM, first compound 0.0316 µM
[34] = second compound 10 µM, first compound 0.1 µM
[35] = second compound 10 µM, first compound 0.316 µM
[36] = second compound 10 µM, first compound 1 µM
[37] = second compound 0.0316 µM, first compound 3.16 µM
[38] = second compound 0.0316 µM, first compound 10 µM
[39] = second compound 0.1 µM, first compound 3.16 µM
[40] = second compound 0.1 µM, first compound 10 µM
[41] = second compound 0.316 µM, first compound 3.16 µM
[42] = second compound 0.316 µM, first compound 10 µM
[43] = second compound 1 µM, first compound 3.16 µM
[44] = second compound 1 µM, first compound 10 µM
[45] = second compound 3.16 µM, first compound 3.16 µM
[46] = second compound 3.16 µM, first compound 10 µM
[47] = second compound 10 µM, first compound 3.16 µM
[48] = second compound 10 µM, first compound 10 µM
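Further: spheroids exposed to the agents for one week.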
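Wherever viability, T/C is given: 100% = DMSO vehicle control wells.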

Compound: C=CCn1c(=O)c2cnc(Nc3ccc(N4CCN(C)CC4)cc3)nc2n1-c1cccc(C(C)(C)O)n1 + COC1C(OC(N)=O)C(O)C(Oc2ccc3c(O)c(NC(=O)c4ccc(O)c(CC=C(C)C)c4)c(=O)oc3c2C)OC1(C)C
- IC50 (second compound 0.0316 µM): > 1 µM
- IC50 (second compound 0.1 µM): > 1 µM
- IC50 (second compound 0.316 µM): > 1 µM
- IC50 (second compound 1 µM): > 1 µM
- IC50 (second compound 3.16 µM): > 1 µM
- IC50 (second compound 10 µM): > 1 µM
- viability, T/C [1]: 91.7%
- viability, T/C [2]: 105%
- viability, T/C [3]: 97.4%
- viability, T/C [4]: 101%
- viability, T/C [5]: 118%
- viability, T/C [6]: 94.9%
- viability, T/C [7]: 94%
- viability, T/C [8]: 96.3%
- viability, T/C [9]: 101%
- viability, T/C [10]: 102%
- viability, T/C [11]: 106%
- viability, T/C [12]: 103%
- viability, T/C [13]: 101%
- viability, T/C [14]: 104%
- viability, T/C [15]: 85%
- viability, T/C [16]: 95.4%
- viability, T/C [17]: 102%
- viability, T/C [18]: 84.9%
- viability, T/C [19]: 108%
- viability, T/C [20]: 95.7%
- viability, T/C [21]: 88.9%
- viability, T/C [22]: 96.2%
- viability, T/C [23]: 100%
- viability, T/C [24]: 93.4%
- viability, T/C [25]: 94.4%
- viability, T/C [26]: 97.7%
- viability, T/C [27]: 101%
- viability, T/C [28]: 91.1%
- viability, T/C [29]: 102%
- viability, T/C [30]: 91.3%
- viability, T/C [31]: 94.6%
- viability, T/C [32]: 69.8%
- viability, T/C [33]: 78%
- viability, T/C [34]: 88.8%
- viability, T/C [35]: 106%
- viability, T/C [36]: 81.2%

Compound: CCCS(=O)(=O)Nc1ccc(F)c(C(=O)c2c[nH]c3ncc(-c4ccc(Cl)cc4)cc23)c1F + COC1C(OC(N)=O)C(O)C(Oc2ccc3c(O)c(NC(=O)c4ccc(O)c(CC=C(C)C)c4)c(=O)oc3c2C)OC1(C)C
- IC50 (second compound 0.0316 µM): > 10 µM
- IC50 (second compound 0.1 µM): > 10 µM
- IC50 (second compound 0.316 µM): > 10 µM
- IC50 (second compound 1 µM): > 10 µM
- IC50 (second compound 3.16 µM): > 10 µM
- IC50 (second compound 10 µM): > 10 µM
- viability, T/C [3]: 98.7%
- viability, T/C [4]: 97%
- viability, T/C [5]: 97.3%
- viability, T/C [6]: 110%
- viability, T/C [37]: 106%
- viability, T/C [38]: 68.6%
- viability, T/C [9]: 102%
- viability, T/C [10]: 103%
- viability, T/C [11]: 103%
- viability, T/C [12]: 110%
- viability, T/C [39]: 102%
- viability, T/C [40]: 83.6%
- viability, T/C [15]: 112%
- viability, T/C [16]: 102%
- viability, T/C [17]: 107%
- viability, T/C [18]: 109%
- viability, T/C [41]: 93%
- viability, T/C [42]: 67.1%
- viability, T/C [21]: 93.6%
- viability, T/C [22]: 103%
- viability, T/C [23]: 101%
- viability, T/C [24]: 103%
- viability, T/C [43]: 90.5%
- viability, T/C [44]: 86.8%
- viability, T/C [27]: 94.7%
- viability, T/C [28]: 103%
- viability, T/C [29]: 95.9%
- viability, T/C [30]: 94.1%
- viability, T/C [45]: 101%
- viability, T/C [46]: 73.8%
- viability, T/C [33]: 90%
- viability, T/C [34]: 84.3%
- viability, T/C [35]: 79.8%
- viability, T/C [36]: 85.1%
- viability, T/C [47]: 90.4%
- viability, T/C [48]: 59.5%

Compound: COc1cccc(OCCCN)c1-c1cc(Nc2cnc(C#N)cn2)n[nH]1 + COC1C(OC(N)=O)C(O)C(Oc2ccc3c(O)c(NC(=O)c4ccc(O)c(CC=C(C)C)c4)c(=O)oc3c2C)OC1(C)C
- IC50 (second compound 0.0316 µM): 0.204 µM
- IC50 (second compound 0.1 µM): 0.187 µM
- IC50 (second compound 0.316 µM): 0.175 µM
- IC50 (second compound 1 µM): 0.159 µM
- IC50 (second compound 3.16 µM): 0.159 µM
- IC50 (second compound 10 µM): 0.16 µM
- viability, T/C [1]: 92.4%
- viability, T/C [2]: 94%
- viability, T/C [3]: 94.3%
- viability, T/C [4]: 91%
- viability, T/C [5]: 24.6%
- viability, T/C [6]: 9.14%
- viability, T/C [7]: 99.6%
- viability, T/C [8]: 96.5%
- viability, T/C [9]: 102%
- viability, T/C [10]: 87.2%
- viability, T/C [11]: 18.6%
- viability, T/C [12]: 8.7%
- viability, T/C [13]: 100%
- viability, T/C [14]: 92.2%
- viability, T/C [15]: 97.2%
- viability, T/C [16]: 84.6%
- viability, T/C [17]: 13.6%
- viability, T/C [18]: 9.43%
- viability, T/C [19]: 108%
- viability, T/C [20]: 94%
- viability, T/C [21]: 78.9%
- viability, T/C [22]: 75.3%
- viability, T/C [23]: 12.9%
- viability, T/C [24]: 8.85%
- viability, T/C [25]: 103%
- viability, T/C [26]: 110%
- viability, T/C [27]: 95.9%
- viability, T/C [28]: 70%
- viability, T/C [29]: 21.3%
- viability, T/C [30]: 9.8%
- viability, T/C [31]: 90.1%
- viability, T/C [32]: 69.7%
- viability, T/C [33]: 80.1%
- viability, T/C [34]: 73.4%
- viability, T/C [35]: 16.1%
- viability, T/C [36]: 8.31%

Compound: O=C(c1cc(Cc2n[nH]c(=O)c3ccccc23)ccc1F)N1CCN(C(=O)C2CC2)CC1 + COC1C(OC(N)=O)C(O)C(Oc2ccc3c(O)c(NC(=O)c4ccc(O)c(CC=C(C)C)c4)c(=O)oc3c2C)OC1(C)C
- IC50 (second compound 0.0316 µM): > 10 µM
- IC50 (second compound 0.1 µM): > 10 µM
- IC50 (second compound 0.316 µM): > 10 µM
- IC50 (second compound 1 µM): > 10 µM
- IC50 (second compound 3.16 µM): > 10 µM
- IC50 (second compound 10 µM): > 10 µM
- viability, T/C [3]: 110%
- viability, T/C [4]: 98%
- viability, T/C [5]: 101%
- viability, T/C [6]: 102%
- viability, T/C [37]: 103%
- viability, T/C [38]: 86.8%
- viability, T/C [9]: 115%
- viability, T/C [10]: 95%
- viability, T/C [11]: 106%
- viability, T/C [12]: 104%
- viability, T/C [39]: 89.8%
- viability, T/C [40]: 98.5%
- viability, T/C [15]: 94.6%
- viability, T/C [16]: 107%
- viability, T/C [17]: 82.9%
- viability, T/C [18]: 83.2%
- viability, T/C [41]: 93.5%
- viability, T/C [42]: 97.6%
- viability, T/C [21]: 95.2%
- viability, T/C [22]: 96.7%
- viability, T/C [23]: 86.4%
- viability, T/C [24]: 98%
- viability, T/C [43]: 98.1%
- viability, T/C [44]: 90.2%
- viability, T/C [27]: 90%
- viability, T/C [28]: 95.7%
- viability, T/C [29]: 90.6%
- viability, T/C [30]: 87%
- viability, T/C [45]: 95.7%
- viability, T/C [46]: 85.8%
- viability, T/C [33]: 88.3%
- viability, T/C [34]: 84%
- viability, T/C [35]: 87.8%
- viability, T/C [36]: 68.5%
- viability, T/C [47]: 87.5%
- viability, T/C [48]: 68.5%
